Assay: pH measurement of formulations and panthenol solutions (Experiments A-C, E)
Type: physicochemical
Protocol: Experiment A: AMP (0.0006%) was added to NRI-ANA-14 to replicate the AMP concentration in NRI-ANA-08. After AMP addition, the pH of NRI-ANA-08 was 4.1, and the pH of NRI-ANA-14 (+0.0006% AMP) was 4.2. This supported the hypothesis.
Experiment B: AMP (0.012%) was added to NRI-ANA-14 to replicate the AMP concentration in NRI-ANA-13. After AMP addition, the pH of NRI-ANA-13 was 4.8, and the pH of NRI-ANA-14 (+0.012% AMP) was 4.8. This supported the hypothesis.
Experiment C: A modified NRI-ANA-14 formulation containing 1.3% TEC and citric acid equivalent to 0.7% TEC was prepared. A control NRI-ANA-14 formulation was subjected to a stability study according to the method set forth in Example 19. After six months at 40° C., the pH of the control NRI-ANA-14 formulation was 2.6, while the pH of the modified NRI-ANA-14 formulation was 1.6. This supported the hypothesis.
Experiment E: The pH of 10% aqueous solution of D,L- and D-panthenol were measured. The pH of 10% D,L-panthenol was 6.7, but the pH of 10% D-panthenol was 9.4. This supported the hypothesis.

For “2,4-dihydroxy-N-(3-hydroxypropyl)-3,3-dimethyl-butanamide [D,L-panthenol]”, the “pH of 10% aqueous solution” value was 6.7.

With “(2R)-2,4- dihydroxy-N- (3- hydroxy- propyl)-2,3,3- trimethyl- butanamide [D-panthenol]” the “pH of 10% aqueous solution” value was 9.4.
